Measured values taken from patent publication US12084521B2, “TLR9 inhibitors to suppress inflammatory response to pathogens” (University Of Maryland, Baltimore, priority 2018, dated 2024).
“Also recorded” adds a separate entry of the source. No end group written: not given here. Cy3 = Cy3 fluorescent dye label

Tests used:
[1] = system: Cer not fused to a TIR domain; test: FLIM/FRET control construct in HeLa cells; format: binding; conditions: peptide 40 μM
Description: (§1) Three million HeLa cells were transfected with 10 μg of MyD88-Cer, TIRAP-Cer, TRAM-Cer, TLR2-Cer, TLR4 TIR-Cer, or TLR9 TIR-Cer expression vectors using a Lipofectamine™ 3000 kit from Invitrogen™ per manufacturer recommendations. Twenty four hours later, the transfected cells were trypsinized and reseeded into a 50-well gasket (Grace Bio-Labs™) mounted on a microscope slide at the density 8000 cells/well. The next day, cells were treated with Cy3-9R34-ΔN or Cy3-9R11 for 1 hour and fixed on the slides with a 4% paraformaldehyde solution.
(§2) Fluorescence lifetime images were acquired using the Alba V FLIM™ system (ISS™ Inc.). The excitation was from the laser diode 443 nm coupled with scanning module (ISS™) through multiband dichroic filter 443/532/635 nm (Semrock™) to Olympus™ IX71S microscope with objective 20×0.45 NA (UPlan™ Olympus™). Emission was observed through bandpass filter […] (Chroma Technology™) and detected by a photomultiplier H7422-40 (Hamamatsu™). Measurements were performed using frequency domain (FD) and time domain (TD) modalities of the FLIM system. FD FLIM data were acquired using ISS™ A320 FastFLIM™ electronics with n harmonics of 20 MHz laser repetition frequency (n=1, 2, 3, 4, 5, 6). FastFLIM™ was calibrated using fluorescein in buffer pH 8.0 as a standard with a single lifetime of 4.0 ns. TD FLIM images were acquired using time-correlated single photon counting TCSPC™ Model SPC-830 (Becker & Hick™).
(§3) Images (256×256 pixels) were acquired with resolution varied in the range ˜0.4-0.7 μm/pixel, using scan speed 1 ms/pixel. To avoid pixel intensity saturation in bright cells and to improve the signal from dim cells, two to five overlapping scans were used for acquisition of FLIM images. Image sizes varied from 100×100 to 180×180 μm to accommodate multiple cells. FLIM data were analyzed with VistaVision™ Suite software (Vista™ v.212 from ISST). Fluorescence lifetime was determined using single- and bi-exponential intensity decay models. Average lifetime images were generated based on pixel-by-pixel analysis using the combined signal of two neighboring pixels in all directions (bin 2=25 pixels). The binning was used to improve the signal for analysis. The average lifetimes were calculated from fitted parameters, decay times τi and amplitudes αi, τa=Σαiτi. The bi-exponential fitting procedure was performed with one lifetime component fixed at 3.1 nsec, which was found common for most images. To calculate the effective FRET efficiency (E), average lifetimes of the donor only images (τD) and donor-acceptor images (τDA) were used, E=1−τDA/τD.
(§4) TLR9, MyD88, and TIRAP were selected as potential primary binding partners for Cy3-9R34-ΔN and Cy3-9R11. Cer-fused TLR2 and TLR4 TIR domains, and Cer not fused to a TIR, were used as controls. […] Therefore, the TIRAP-Cer with Cy3-2R9 was used as a positive binding control. Binding of Cy3-labeled CPDPs to Cerulean- (Cer-) labeled TIR domains was tested as follows. Fluorescence Lifetime IMages (FLIM) were made of HeLa cells expressing Cer not fused with a TIR domain (upper row) or fused with TLR9 TIR or TIRAP TIR (middle and bottom rows) and treated with a Cy3-labeled decoy peptide for 1 hour.

MyD88 TIR = target: T1, MyD88 TIR (Homo sapiens, UniProt Q99836); test: FLIM/FRET binding of Cy3-labeled peptides to Cer-fused TIR in HeLa cells
T1 construct: expressed in transfected cells; host or cells: HeLa
T1 sequence (Q99836 159-293 limits assumed): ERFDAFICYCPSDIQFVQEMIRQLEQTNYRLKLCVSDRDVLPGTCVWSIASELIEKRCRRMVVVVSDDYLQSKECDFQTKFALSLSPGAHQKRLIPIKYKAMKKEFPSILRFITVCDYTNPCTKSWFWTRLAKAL
Description: as §1, §2, §3
(§5) To identify potential binding partners of inhibitory peptides a FRET approach coupled with Fluorescence Lifetime Imaging Microscopy (FLIM) was used. HeLa cells were transiently transfected with an expression vector that encodes a TIR domain fused with Cerulean fluorescent protein (Cer). Cells were treated with various concentrations of a Cy3-labeled inhibitory peptide 48 hours after transfection. Cy3 is a suitable FRET acceptor for Cer fluorescence. A direct molecular interaction of a Cy3-labeled peptide with Cer-fused TIR domain should quench Cer fluorescence, leading to a decreased fluorescence lifetime.
as §4
(§6) A progressive shift of average fluorescence lifetime towards lower values observed with increasing peptide concentrations indicates the binding between donor and acceptor moieties. […]

TIRAP TIR = target: T2, TIRAP TIR (Homo sapiens, UniProt P58753); test: as above; conditions: HeLa cells, Cy3-peptide 2.5-40 μM, 1 hour
T2 construct: fused with TLR9 TIR or TIRAP TIR; expressed in transfected cells; host or cells: HeLa
T2 sequence (P58753 84-213 limits assumed): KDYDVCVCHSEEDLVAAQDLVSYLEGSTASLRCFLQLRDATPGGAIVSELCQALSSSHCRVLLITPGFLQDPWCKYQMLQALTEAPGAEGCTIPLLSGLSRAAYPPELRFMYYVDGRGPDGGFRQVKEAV
Description: as §1, §2, §3, §5, §4, §6

TLR9 TIR = target: T3, TLR9 TIR (Homo sapiens, UniProt Q9NR96); test: as above; conditions: HeLa cells, Cy3-peptide 2.5-40 μM, 1 hour, dose-dependent
T3 construct: expressed in transfected cells; host or cells: HeLa
T3 sequence (Q9NR96 868-1013 limits assumed): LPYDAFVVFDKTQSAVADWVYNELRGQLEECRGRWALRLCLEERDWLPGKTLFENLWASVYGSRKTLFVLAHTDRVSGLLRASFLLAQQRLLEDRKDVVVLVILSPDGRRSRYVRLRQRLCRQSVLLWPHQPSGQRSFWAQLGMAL
Description: as §1, §2, §3, §5, §4, §6

myDDosome = conditions: BMDM pretreated with CPDP; MyD88 IP, IRAK4 blot
Description: Four million BMDMs per well were plated in 6-well plates and treated with CPDP for 30 minutes prior to stimulation with ODN 1668 for 90 minutes. Cells were lysed in 600 p L of buffer containing 20 mM HEPES (pH 7.4), 150 mM NaCl, 10 mM NaF, 2 mM Na3VO4, 1 mM EDTA, 1 mM EGTA, 0.5% Triton X-100, 0.1 mM DTT, and protease inhibitor cocktail (Roche™). Cell extracts were incubated overnight with 1 μg of anti-mouse MyD88 antibody (AF3109) (R&D Systems™, followed by a 4-hour incubation with 20 μL protein G Sepharose beads (ThermoFisherm Scientific). The beads were then washed 3 times with 500 μL of lysis buffer and boiled in 60 μL of Laemmli sample buffer (Bio-Rad™). Cell extracts were electrophoresed on 10% acrylamide gel by SDS-PAGE and transferred to PVDF membrane (Bio-Rad™). Rabbit anti-MyD88 IgG was purchased from Cell Signaling™. Mouse anti-IRAK4 IgG was obtained from Abcam™. Alkaline phosphatase-conjugated secondary antibodies against mouse and rabbit IgG were purchased from Cell Signaling™. The stabilized substrate for alkaline phosphatase was from Promega™.
TLR stimulation causes formation of myDDosome, a signaling complex composed through interactions of IRAK and MyD88 death domains. To test if peptides inhibit myDDosome formation, MyD88 was immunoprecipitated from lysates of ODN-stimulated BMDM and the precipitates analyzed for IRAK4 presence. BMDM were lysed and lysates immunoprecipitated with anti-MyD88 Ab and immune complexes assessed with anti-IRAK4 Ab 3 hours after cell treatment with ODN 1668.

TLR9 signaling [2] = test: ODN 1668-induced cytokine mRNA expression in BMDM (quantitative real time PCR); format: cell-based, mouse; conditions: BMDM; for inhibition of TLR9 signaling (ODN 1668-induced cytokine mRNA, overall): peptide 10, 20 or 40 μM, ODN 1668 1 μM; for TNFα mRNA expression / IL-12-p40 mRNA expression / IL-10 mRNA expression: peptide 10, 20 or 40 μM 30 min before ODN 1668 (1 μM), normalized to HPRT; for TNFα mRNA expression: 1 hour after stimulation; for IL-12-p40 mRNA expression / IL-10 mRNA expression: 1 hour
Description: The cDNA obtained was amplified with gene-specific primers for mouse HPRT, TNFα, IL-10, IL-12-p40, or IL-6 and Fast SYBR Green™ master mix (Applied Biosystemsm) as previously described.
Mouse BMDMs were incubated in the presence of a 10, 20 or 40 μM decoy peptide for 30 minutes prior to stimulation with ODN 1668 (1 μM). […] Data represent the means±SEM of at least three independent experiments. The statistical significance of changes in cytokine mRNA was determined by a one-way ANOVA test; *p<0.001. Peptides 9R3 and 9R34 have overlapping sequences (see Table 1).
To investigate inhibition of TLR9 signaling by 9R34 analogues, the following work was performed. Mouse BMDMs were incubated in the presence of a 10, 20 or 40 μM decoy peptide for 30 minutes prior to stimulation with ODN 1668 (1 μM). Cytokine mRNA expression was measured 1 hour after ODN 1668 challenge and normalized to the expression of HPRT. See also Table 1. Data represent means±SEM of at least three independent experiments.

TLR9 signaling [3] = test: Plasma cytokines after i.p. ODN 1668 in mice; format: in vivo, C57BL/6J mice; conditions: peptide 200 nmol/mouse i.p.; ODN 1668 7.86 nmol/mouse
Description: Systemic cytokine levels were measured in plasma samples obtained 1, 3, and 5 hours after intraperitoneal (i.p.) administration of 7.86 nmol (50 μg) of ODN 1668 or 67 nmol of Pam3C per mouse, using ELISA kits from Biolegend™ Inc. CPDP were dissolved in PBS and administered i.p. at the dose of 200 nmol per mouse 1 hour before administration of a TLR agonist. For survival experiments, mice were sensitized to TLR9 agonists by i.p. injection of 20 mg of D-Gal 30 minutes before administration of peptides or PBS. ODN 1668 was used at the doses of 3.93 or 7.86 nmol/mouse (25 or 50 μg/mouse) 1.5 hours after D-Gal. Animal survival was monitored for 50 hours. All agents were administered i.p. in 500 μL volume of PBS. Animals had free access to food and water during the observation period. All animal experiments were conducted in accordance with the national guidelines for the care and use of laboratory animals under a protocol that was approved by the UMB IACUC.
To test the in vivo efficacy and specificity of 9R34-ΔN, C57BL/6J mice were mock-treated or treated i.p. with a single dose of inhibitory or control peptide (200 nmol/mouse) and challenged with TLR9 agonist ODN 1668 (7.86 nmol/mouse) or TLR2/1 agonist Pam3C (67 nmol/mouse) 1 hour later. Plasma concentrations of TNFα and IL-12-p40 were measured 1, 3, and 5 hours after the challenge. Both TLR agonists increased concentrations of TNFα and IL-12-p40 in 1 hour samples from below the limit of detection to about 1.2 and about 6 ng/mL in the case of ODN 1668, and to 0.12 ng/mL and 1 ng/mL after treatment with Pam3C.
Plasma TNFα and IL-12-p40 levels following intraperitioneal administration of ODN 1668 to C57Bl/6J mice in peptide-pretreated and control mice are shown in FIG. 14A and FIG. 14B. Data shown in these figures represent the means±SEM obtained in at least three independent experiments. The statistical significance of changes in cytokine concentrations was determined by a two-way ANOVA test; *p<0.001.

TLR9 signaling [4] = test: ODN 1668-induced cytokine secretion in BMDM supernatants (ELISA); format: cell-based, mouse; conditions: peptide 40 μM; 5 hour supernatants; ODN 1668 1 μM
Description: Mouse TNFα and IL-12-p40 concentrations were measured in supernatants using ELISA kits from Biolegend™, Inc.
BMDMs were incubated in the presence of a decoy peptide for 30 minutes prior to stimulation with ODN 1668 (1 μM). The statistical significance of changes in cytokine levels was determined by the one-way ANOVA test; *p<0.01.

Substance: Cy3-9R11: Cy3-labeled 9R11 peptide, Cy3 label placed at the peptide N-terminus (Cy3-RQIKIWFQNRRMKWKKRSFWAQLGMALTRD)
- fluorescence lifetime of Cer not fused to a TIR domain (unspecific quenching) [1]: Unspecific Cer quenching
- quenching of MyD88-Cer fluorescence lifetime (MyD88 TIR): detectable, but less effective
- quenching of TIRAP-Cer fluorescence (TIRAP TIR): induced FRET from TIRAP-Cer, but only when used at higher concentrations of 10 or 40 μM
- FRET efficiency, TLR9 TIR-Cer (TLR9 TIR): 3-27%

Substance: DKTQSAVADWVYNE (Synthetic peptide 9R2)
- ODN 1668-induced myDDosome formation (myDDosome): not
- inhibition of TLR9 signaling (ODN 1668-induced cytokine mRNA, overall) (TLR9 signaling [2]): did not inhibit TLR9
- ODN 1668-induced plasma cytokine levels (TNFα, IL-12-p40) (TLR9 signaling [3]): did not significantly reduce

Substance: GRWALRACAEERD (Synthetic peptide 9R34-delta-L2) [Peptide 9R34-ΔL2]
- inhibition of TLR9 signaling (ODN 1668-induced cytokine mRNA, overall) (TLR9 signaling [2]): inhibited TLR9 signaling less potently

Substance: GRWALRACLEERD (Synthetic peptide 9R34-delta-L1) [Peptide 9R34-ΔL1]
- inhibition of TLR9 signaling (ODN 1668-induced cytokine mRNA, overall) (TLR9 signaling [2]): inhibited TLR9 signaling less potently

Substance: GRWALRLCLE (Synthetic peptide 9R34-delta-C) [Peptide 9R34-ΔC]
- inhibition of TLR9 signaling (ODN 1668-induced cytokine mRNA, overall) (TLR9 signaling [2]): as potent as the parent peptide

Substance: GRWALRLSLEERD (Synthetic peptide 9R34-C/S)
- inhibition of TLR9 signaling (ODN 1668-induced cytokine mRNA, overall) (TLR9 signaling [2]): as potent as the parent peptide

Substance: HTDRVSGLLRASFL (Synthetic peptide 9R6)
- TNFα mRNA expression (TLR9 signaling [2]): partial activity
- IL-12-p40 mRNA expression (TLR9 signaling [2]): partial activity
- inhibition of TLR9 signaling (ODN 1668-induced cytokine mRNA, overall) (TLR9 signaling [2]): some inhibitory activity; also recorded: weakly inhibited

Substance: LEERDWLPGKTLFE (Synthetic peptide 9R4)
- inhibition of TLR9 signaling (ODN 1668-induced cytokine mRNA, overall) (TLR9 signaling [2]): did not inhibit

Substance: RGQLEECRGRWALR (also: antennapedia vector attached) [Peptide 9R3, tested as CPDP with antennapedia vector]
- TNFα mRNA expression (TLR9 signaling [2]): significantly suppressed
- IL-10 mRNA expression (TLR9 signaling [2]): significantly suppressed
- IL-12-p40 mRNA expression (TLR9 signaling [2]): significantly suppressed
- inhibition of TLR9 signaling (ODN 1668-induced cytokine mRNA, overall) (TLR9 signaling [2]): inhibit TLR9 signaling

Substance: RYVRLRQRLCRQS (Synthetic peptide 9R9)
- production/secretion of TNFα (TLR9 signaling [4]): did not inhibit significantly
- secretion of IL-12-p40 (TLR9 signaling [4]): reduced secretion
- TNFα mRNA expression (TLR9 signaling [2]): significantly suppressed
- IL-10 mRNA expression (TLR9 signaling [2]): significantly suppressed
- IL-12-p40 mRNA expression (TLR9 signaling [2]): significantly suppressed
- inhibition of TLR9 signaling (ODN 1668-induced cytokine mRNA, overall) (TLR9 signaling [2]): inhibit TLR9 signaling; also recorded: inhibited signaling weaker than 9R34 or 9R11

Substance: SPDGRRSRYVR (Synthetic peptide 9R8)
- inhibition of TLR9 signaling (ODN 1668-induced cytokine mRNA, overall) (TLR9 signaling [2]): some inhibitory activity
